From US12612627B2, “Compositions and methods for increasing sodium current in cardiac cells” (REGENTS OF THE UNIVERSITY OF MINNESOTA, priority 2020, dated 2026)

Tests used:
miR-448 = miR-448 level by qPCR in RL14 human cardiomyocytes; type: cell-based; details: for increase of miR-448 by deferoxamine: then deferoxamine six hours; for miR-448 expression: RL14 cells stimulated with hypoxia-mimetic chemical for 24 hours, normalized with RNU6
Experimental: Human fetal cardiomyocyte cell line RL14 (ATCC RL-14, ATCC, Manassas, VA) cells were grown in DMEM/F-12 nutrient mixture (GE Healthcare Life Sciences, Logan, UT) supplemented with 12.5% (v/v) fetal bovine serum (Gibco, Grand Island, NY) and penicillin-streptomycin (10,000 U/mL; Gibco, Grand Island, NY). HEK293T cells were maintained in DMEM high glucose supplemented with 10% fetal bovine serum and penicillin-streptomycin. hiPSC-cardiomyocytes (iCELL Cardiomyocytes) were obtained from Cellular Dynamics International (Madison, WI). iCELL cardiomyocytes were seeded and maintained using iCELL Cardiomyocyte Plating Medium and Maintenance Medium (FUJIFILM Cellular Dynamics, Inc., Madison, WI). For hypoxic conditions, the cells were cultured in an hypoxic incubator chamber (STEMCELL Technologies, Vancouver, BC) using pre-incubated culture media or were treated with hypoxic-mimetic chemicals, deferoxamine (DFX) and cobalt chloride (CoCl2) (Sigma-Aldrich, St. Louis, MO) as previously described (Chachami et al., 2004, Am J Respir Cell Mol Biol 31:544-551; Woo et al, 2006, Biochem Biophys Res Commun 343:8-14).
Syn-hsa-miR-448 miScript miRNA mimic, anti-hsa-miR-448 miScript miRNA inhibitor, and its negative controls were purchased from Qiagen (Valencia, CA). REST siRNA and its negative control were obtained from Integrated DNA Technologies (Coralville, IA). The cells were transfected using HiPerFect Transfection Reagent (Qiagen, Valencia, CA) following the recommendations of the manufacturer. Plasmid DNA was transfected into cultured cells using SuperFect transfection reagent (Qiagen, Valencia, CA) following the manufacturer's protocol.
Total RNA was prepared using RNeasy Plus Mini Kit or miRNeasy Mini Kit (Qiagen, Valencia, CA) according to the manufacturer's instructions. Reverse transcription was performed with a First Strand cDNA Synthesis kit (Promega, Madison, WI). cDNA for miRNA detection was generated by the miScript II RT Kit (Qiagen, Valencia, CA). A reverse transcription quantitative real-time PCR was performed with SYBR Green PCR Master Mix (Thermo Fisher Scientific, Waltham, MA) using the 7500Fast Real-Time PCR system (Thermo Fisher Scientific, Waltham, MA) and miScript SYBR Green PCR Kit with miScript primer assays to detect the expression of miRNA. The primer sequences were as follows:
Hs_miR-448_1 miScript Primer Assay (5′-[…]-3′; (SEQ ID NO:1; Qiagen, Valencia, CA) was used for detecting miR-448, and the Hs_RNU6-2_11 miScript Primer Assay (Qiagen, Valencia, CA) was used as an endogenous control. The relative fold change was calculated by the 2^−ΔΔCt method, and the measurements were normalized with respect to the endogenous control (RNU6, GAPDH).

Nav1.5 = Nav1.5 protein level by Western blotting in RL14 human cardiomyocytes; type: cell-based; details: cardiomyocytes treated for 24 hours
Experimental: Human fetal cardiomyocyte cell line RL14 (ATCC RL-14, ATCC, Manassas, VA) cells were grown in DMEM/F-12 nutrient mixture (GE Healthcare Life Sciences, Logan, UT) supplemented with 12.5% (v/v) fetal bovine serum (Gibco, Grand Island, NY) and penicillin-streptomycin (10,000 U/mL; Gibco, Grand Island, NY). HEK293T cells were maintained in DMEM high glucose supplemented with 10% fetal bovine serum and penicillin-streptomycin. hiPSC-cardiomyocytes (iCELL Cardiomyocytes) were obtained from Cellular Dynamics International (Madison, WI). iCELL cardiomyocytes were seeded and maintained using iCELL Cardiomyocyte Plating Medium and Maintenance Medium (FUJIFILM Cellular Dynamics, Inc., Madison, WI). […]
Cells were washed twice with ice-cold PBS and disrupted in Cell Lysis Buffer (Cell Signaling Technology, Danvers, MA) with Protease and Phosphatase Inhibitor Cocktail (Thermo Fisher Scientific, Waltham, MA) on ice for 30 minutes. […] The total protein concentration was quantified using the BCA Protein Assay Kit (Pierce, Thermo Fisher Scientific, Waltham, MA). […]
After TBST washing, the membrane was incubated with horseradish peroxidase (HRP)-conjugated secondary antibody (1:5000) for 90 min at room temperature. […] The images were analyzed using ImageJ software to measure band density. […]

For `O=S(=O)(NCCSSCCNS(=O)(=O)c1cc(Cl)ccc1Cl)c1cc(Cl)ccc1Cl` [KC7F2], the “increase of miR-448 by deferoxamine” value (miR-448; 5 μM or 20 μM for 30 minutes) was “inhibited”.
For `C=CCONC(=O)c1ccc2nc(-c3ccccc3O)[nH]c2c1` [X5050], the Nav1.5 protein level (Nav1.5) was “decreased”.
With `COC(=O)CNC(=O)C(=O)OC` [dimethyloxallyl glycine] the miR-448 expression (miR-448) was “increased”.
`Cc1ccc(S(=O)(=O)/C=C/C#N)cc1` [Bay11-7028] was tested, and the “increase of miR-448 by deferoxamine” value (miR-448; 0.5 μM or 2 μM for 30 minutes) was “inhibited”.
With `[Cl][Co][Cl]` [cobalt chloride] the miR-448 expression (miR-448) was “increased”.
